Measurements published in the supplement of paper PMC8920030.

Columns and labels:
Conditions in all cases: growth mode: biofilm, 24 h; exposure time: 24 h
colistin [1] = compound: T1, CCC(C)CCCC(=O)N[C@@H](CCN)C(=O)N[C@H](C(=O)N[C@@H](CCN)C(=O)N[C@H]1CCNC(=O)[C@H]([C@@H](C)O)NC(=O)[C@H](CCN)NC(=O)[C@H](CCN)NC(=O)[C@H](CC(C)C)NC(=O)[C@@H](CC(C)C)NC(=O)[C@H](CCN)NC1=O)[C@@H](C)O [colistin]; assay: minimum concentration of killing, 1-log CFU reduction of biofilm (MCK90); higher = more biofilm tolerance
Protocol: (§1)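 Clinical P. aeruginosa isolates were grown as static biofilms for 24 h at 37 °C in LB in half-area 96-well plates, then exposed for 24 h to colistin at 1, 4, 16, 64, 256 or […]. Surviving CFU were counted by spotting serial dilutions. MCK is the lowest tested concentration giving the stated log reduction in CFU versus an untreated control; '>1024' means the reduction was not reached at the top dose, and 1 is the lowest dose tested (≤1).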

tobramycin [2] = compound: T2, NC[C@H]1O[C@H](O[C@H]2[C@H](O)[C@@H](O[C@H]3O[C@H](CO)[C@@H](O)[C@H](N)[C@H]3O)[C@H](N)C[C@@H]2N)[C@H](N)C[C@@H]1O [tobramycin]; assay: minimum concentration eradicating biofilm below detection limit (MCK-E); higher = more biofilm tolerance
Protocol: (§2)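 Clinical P. aeruginosa isolates were grown as static biofilms for 24 h at 37 °C in LB in half-area 96-well plates, then exposed for 24 h to tobramycin at 1, 4, 16, 64, 256 or […]. Surviving CFU were counted by spotting serial dilutions. MCK is the lowest tested concentration giving the stated log reduction in CFU versus an untreated control; '>1024' means the reduction was not reached at the top dose, and 1 is the lowest dose tested (≤1).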

tobramycin [3] = compound: T2, tobramycin; assay: minimum concentration of killing, 1-log CFU reduction of biofilm (MCK90); higher = more biofilm tolerance
Protocol: as §2

tobramycin [4] = compound: T2, tobramycin; assay: minimum concentration of killing, 2-log CFU reduction of biofilm (MCK99); higher = more biofilm tolerance
Protocol: as §2

colistin [5] = compound: T1, colistin; assay: minimum concentration eradicating biofilm below detection limit (MCK-E); higher = more biofilm tolerance
Protocol: as §1

colistin [6] = compound: T1, colistin; assay: minimum concentration of killing, 4-log CFU reduction of biofilm (MCK99.99); higher = more biofilm tolerance
Protocol: as §1

colistin [7] = compound: T1, colistin; assay: minimum concentration of killing, 2-log CFU reduction of biofilm (MCK99); higher = more biofilm tolerance
Protocol: as §1

tobramycin [8] = compound: T2, tobramycin; assay: minimum concentration of killing, 4-log CFU reduction of biofilm (MCK99.99); higher = more biofilm tolerance
Protocol: as §2

Pseudomonas aeruginosa clinical isolate F1764
minimum concentration of killing (colistin [1]): 16 µg/mL | minimum concentration eradicating biofilm below detection limit (tobramycin [2]): > 1020 µg/mL | minimum concentration of killing (tobramycin [3]): 16 µg/mL | minimum concentration of killing (tobramycin [4]): 64 µg/mL | minimum concentration eradicating biofilm below detection limit (colistin [5]): 64 µg/mL | minimum concentration of killing (colistin [6]): 64 µg/mL | minimum concentration of killing (colistin [7]): 64 µg/mL | minimum concentration of killing (tobramycin [8]): 1020 µg/mL

Pseudomonas aeruginosa clinical isolate F1775
minimum concentration of killing (colistin [1]): 16 µg/mL | minimum concentration eradicating biofilm below detection limit (tobramycin [2]): 1020 µg/mL | minimum concentration of killing (tobramycin [3]): ≤ 1 µg/mL | minimum concentration of killing (tobramycin [4]): ≤ 1 µg/mL | minimum concentration eradicating biofilm below detection limit (colistin [5]): 256 µg/mL | minimum concentration of killing (colistin [6]): 256 µg/mL | minimum concentration of killing (colistin [7]): 256 µg/mL | minimum concentration of killing (tobramycin [8]): 16 µg/mL

Pseudomonas aeruginosa clinical isolate F1800
minimum concentration of killing (colistin [1]): 16 µg/mL | minimum concentration eradicating biofilm below detection limit (tobramycin [2]): 1020 µg/mL | minimum concentration of killing (tobramycin [3]): ≤ 1 µg/mL | minimum concentration of killing (tobramycin [4]): ≤ 1 µg/mL | minimum concentration eradicating biofilm below detection limit (colistin [5]): 1020 µg/mL | minimum concentration of killing (colistin [6]): 1020 µg/mL | minimum concentration of killing (colistin [7]): 256 µg/mL | minimum concentration of killing (tobramycin [8]): 256 µg/mL

Pseudomonas aeruginosa clinical isolate F1823
minimum concentration of killing (colistin [1]): 64 µg/mL | minimum concentration eradicating biofilm below detection limit (tobramycin [2]): > 1020 µg/mL | minimum concentration of killing (tobramycin [3]): 4 µg/mL | minimum concentration of killing (tobramycin [4]): 64 µg/mL | minimum concentration eradicating biofilm below detection limit (colistin [5]): 1020 µg/mL | minimum concentration of killing (colistin [6]): 256 µg/mL | minimum concentration of killing (colistin [7]): 256 µg/mL | minimum concentration of killing (tobramycin [8]): > 1020 µg/mL

Pseudomonas aeruginosa clinical isolate F1856
minimum concentration of killing (colistin [1]): 4 µg/mL | minimum concentration eradicating biofilm below detection limit (tobramycin [2]): 1020 µg/mL | minimum concentration of killing (tobramycin [3]): 256 µg/mL | minimum concentration of killing (tobramycin [4]): 1020 µg/mL | minimum concentration eradicating biofilm below detection limit (colistin [5]): 64 µg/mL | minimum concentration of killing (colistin [6]): 64 µg/mL | minimum concentration of killing (colistin [7]): 16 µg/mL | minimum concentration of killing (tobramycin [8]): 1020 µg/mL

Pseudomonas aeruginosa clinical isolate F1862
minimum concentration of killing (colistin [1]): 256 µg/mL | minimum concentration eradicating biofilm below detection limit (tobramycin [2]): 256 µg/mL | minimum concentration of killing (tobramycin [3]): 64 µg/mL | minimum concentration of killing (tobramycin [4]): 256 µg/mL | minimum concentration eradicating biofilm below detection limit (colistin [5]): 256 µg/mL | minimum concentration of killing (colistin [6]): 256 µg/mL | minimum concentration of killing (colistin [7]): 256 µg/mL | minimum concentration of killing (tobramycin [8]): 256 µg/mL

Pseudomonas aeruginosa clinical isolate F1864
minimum concentration of killing (colistin [1]): 256 µg/mL | minimum concentration eradicating biofilm below detection limit (tobramycin [2]): > 1020 µg/mL | minimum concentration of killing (tobramycin [3]): 1020 µg/mL | minimum concentration of killing (tobramycin [4]): 1020 µg/mL | minimum concentration eradicating biofilm below detection limit (colistin [5]): 1020 µg/mL | minimum concentration of killing (colistin [6]): 256 µg/mL | minimum concentration of killing (colistin [7]): 256 µg/mL | minimum concentration of killing (tobramycin [8]): 1020 µg/mL

Pseudomonas aeruginosa clinical isolate F1880
minimum concentration of killing (colistin [1]): 256 µg/mL | minimum concentration eradicating biofilm below detection limit (tobramycin [2]): 1020 µg/mL | minimum concentration of killing (tobramycin [3]): 64 µg/mL | minimum concentration of killing (tobramycin [4]): 1020 µg/mL | minimum concentration eradicating biofilm below detection limit (colistin [5]): 256 µg/mL | minimum concentration of killing (colistin [6]): 256 µg/mL | minimum concentration of killing (colistin [7]): 256 µg/mL | minimum concentration of killing (tobramycin [8]): 1020 µg/mL

Pseudomonas aeruginosa clinical isolate F1957
minimum concentration of killing (colistin [1]): 256 µg/mL | minimum concentration eradicating biofilm below detection limit (tobramycin [2]): 1020 µg/mL | minimum concentration of killing (tobramycin [3]): 256 µg/mL | minimum concentration of killing (tobramycin [4]): 1020 µg/mL | minimum concentration eradicating biofilm below detection limit (colistin [5]): 1020 µg/mL | minimum concentration of killing (colistin [6]): 256 µg/mL | minimum concentration of killing (colistin [7]): 256 µg/mL | minimum concentration of killing (tobramycin [8]): 1020 µg/mL

Pseudomonas aeruginosa clinical isolate F1959
minimum concentration of killing (colistin [1]): 64 µg/mL | minimum concentration eradicating biofilm below detection limit (tobramycin [2]): > 1020 µg/mL | minimum concentration of killing (tobramycin [3]): 16 µg/mL | minimum concentration of killing (tobramycin [4]): 64 µg/mL | minimum concentration eradicating biofilm below detection limit (colistin [5]): 64 µg/mL | minimum concentration of killing (colistin [6]): 64 µg/mL | minimum concentration of killing (colistin [7]): 64 µg/mL | minimum concentration of killing (tobramycin [8]): 1020 µg/mL

Pseudomonas aeruginosa clinical isolate F1968
minimum concentration of killing (colistin [1]): 64 µg/mL | minimum concentration eradicating biofilm below detection limit (tobramycin [2]): 1020 µg/mL | minimum concentration of killing (tobramycin [3]): 4 µg/mL | minimum concentration of killing (tobramycin [4]): 64 µg/mL | minimum concentration eradicating biofilm below detection limit (colistin [5]): 256 µg/mL | minimum concentration of killing (colistin [6]): 256 µg/mL | minimum concentration of killing (colistin [7]): 256 µg/mL | minimum concentration of killing (tobramycin [8]): 256 µg/mL

Pseudomonas aeruginosa clinical isolate F2003
minimum concentration of killing (colistin [1]): 64 µg/mL | minimum concentration eradicating biofilm below detection limit (tobramycin [2]): 1020 µg/mL | minimum concentration of killing (tobramycin [3]): ≤ 1 µg/mL | minimum concentration of killing (tobramycin [4]): 4 µg/mL | minimum concentration eradicating biofilm below detection limit (colistin [5]): 1020 µg/mL | minimum concentration of killing (colistin [6]): 1020 µg/mL | minimum concentration of killing (colistin [7]): 256 µg/mL | minimum concentration of killing (tobramycin [8]): 256 µg/mL

Pseudomonas aeruginosa clinical isolate F2005
minimum concentration of killing (colistin [1]): 16 µg/mL | minimum concentration eradicating biofilm below detection limit (tobramycin [2]): 1020 µg/mL | minimum concentration of killing (tobramycin [3]): ≤ 1 µg/mL | minimum concentration of killing (tobramycin [4]): 16 µg/mL | minimum concentration eradicating biofilm below detection limit (colistin [5]): 256 µg/mL | minimum concentration of killing (colistin [6]): 256 µg/mL | minimum concentration of killing (colistin [7]): 256 µg/mL | minimum concentration of killing (tobramycin [8]): 16 µg/mL

Pseudomonas aeruginosa clinical isolate F2006
minimum concentration of killing (colistin [1]): 64 µg/mL | minimum concentration eradicating biofilm below detection limit (tobramycin [2]): 64 µg/mL | minimum concentration of killing (tobramycin [3]): ≤ 1 µg/mL | minimum concentration of killing (tobramycin [4]): ≤ 1 µg/mL | minimum concentration eradicating biofilm below detection limit (colistin [5]): 256 µg/mL | minimum concentration of killing (colistin [6]): 256 µg/mL | minimum concentration of killing (colistin [7]): 64 µg/mL | minimum concentration of killing (tobramycin [8]): 64 µg/mL
